Laboratory results from patent US4985447A, “Certain benzoquinones, naphthoquinones and derivatives thereof which exhibit thromboxane A2 synthetase inhibition or receptor antagonism and the like” (Takeda Chemical Industries, Ltd., priority 1986, dated 1991).
Where two headings read alike, the source gives them in different places.

What was measured:
5-lipoxygenase = biological target: T1, 5-lipoxygenase (Rattus norvegicus, UniProt P12527); assay: Inhibition of 5-lipoxygenase (production of 5-HETE in RBL-1 cells); assay type: cell-based, rat (RBL-1, rat basophilic leukemia cells); details: for inhibition at 1 µM: 10^-6 M; for inhibition at 0.1 µM: 10^-7 M
T1 construct: endogenous in cells; host or cells: RBL-1 cells (rat basophilic leukemia)
T1 sequence (P12527 1-673): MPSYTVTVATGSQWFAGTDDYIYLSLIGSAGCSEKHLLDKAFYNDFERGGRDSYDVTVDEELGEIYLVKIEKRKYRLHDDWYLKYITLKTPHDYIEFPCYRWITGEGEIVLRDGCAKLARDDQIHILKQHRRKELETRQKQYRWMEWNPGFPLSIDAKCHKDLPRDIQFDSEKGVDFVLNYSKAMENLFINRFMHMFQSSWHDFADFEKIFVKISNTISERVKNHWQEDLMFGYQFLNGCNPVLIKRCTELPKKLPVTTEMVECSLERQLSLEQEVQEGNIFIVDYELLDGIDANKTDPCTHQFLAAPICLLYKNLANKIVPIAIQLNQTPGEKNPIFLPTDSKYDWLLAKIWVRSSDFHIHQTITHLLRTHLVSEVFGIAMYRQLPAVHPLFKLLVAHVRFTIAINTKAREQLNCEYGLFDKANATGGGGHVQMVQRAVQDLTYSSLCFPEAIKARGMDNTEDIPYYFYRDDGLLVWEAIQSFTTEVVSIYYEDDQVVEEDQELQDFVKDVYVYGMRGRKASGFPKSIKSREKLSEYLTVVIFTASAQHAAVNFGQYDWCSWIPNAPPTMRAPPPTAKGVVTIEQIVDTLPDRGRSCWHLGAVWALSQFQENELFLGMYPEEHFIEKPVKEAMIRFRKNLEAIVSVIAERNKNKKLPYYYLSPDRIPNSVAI
Protocol: Inhibition of 5-lipoxygenase
10^7 RBL-1 cells (rat basophilic leukemia cells) were suspended in 0.5 ml of MCM (mast cell medium ). To the suspension was subsequently added a solution consisting of 0.5 ml of MCM, 50 μg of arachidonic acid, 10 μg of A-23187 (calcium ionophore, Eli Lilly), and a solution of a quinone compound in ethanol at the final concentration of 1 μM, 0.1 μM, 0.01 μM or 0.001 μM of the test compound was added and allowed to react at 37° C. for 20 minutes. After the reaction, 4 ml of ethanol containing 1,4-dimethoxy-2-methyl-3-(3-methoxypropyl)naphthalene as an internal standard were added, mixed well by shaking, and kept at room temperature for 10 minutes. Then the mixture was centrifuged for 10 minutes (2000 rpm), and the supernatant was separated. The supernatant was concentrated to dryness under reduced pressure. To the concentrate, 0.5 ml of 60% aqueous methanol was added. One hundred μl of this solution was subjected to high performance liquid chromatography for quantitative analysis of 5-HETE (5-hydroxyeicosatetraenoic acid). The amount of 5-HETE was analyzed by measurement of the absorbance at […] with a UV absorption monitor.
Inhibitory effect (IE) of production of 5-HETE is expressed by (1-b/a)×100, wherein a is the peak height or the area corrected with the peak due to the internal standard in the absence of the quinone compound, and b is the peak hight or peak area corrected with the peak due to the internal standard in the presence of the quinone compound.

[1] = system: lipid peroxide in rat brain homogenate; assay: Inhibition of production of lipid peroxide in rat brain homogenate; assay type: biochemical, rat (Sprague-Dawley)
Protocol: Procedure: Sprague-Dawley rats (male, 9-15 weeks old) anesthetized with pentobarbital (50 mg/kg, intraperitoneal administration) were venesected and the brain tissue was resected. The tissue was homogenized in phosphate buffer (pH 7.4), and used as a 5% homogenate (on weight basis). The brain homogenate was allowed to react at 37° C. for 1 hour, and the amount of lipid peroxide produced was determined with the thiobarbituric acid method according to the method of Okawa et al. (Analytical Biochem 95 551, 1979). The drug was added to the 5% homogenate before the reaction at 37° C. for 1 hour so that the final concentration might be 5×10^-7 or 10^-6 M. Inhibition of production of lipid peroxide was expressed as the rate of inhibition in % of the amount produced in the solvent(DMSO)-treated group.

[2] = biological target: T2, Thromboxane A2 (TXA2) synthetase (Equus caballus, UniProt A0A9L0T8T9); assay: Inhibition of Thromboxane A2 (TXA2) synthetase (horse platelet microsome); assay type: biochemical; details: read-out: Inhibition of Thromboxane A2 (TXA2) synthetase
T2 sequence (A0A9L0T8T9 2-534): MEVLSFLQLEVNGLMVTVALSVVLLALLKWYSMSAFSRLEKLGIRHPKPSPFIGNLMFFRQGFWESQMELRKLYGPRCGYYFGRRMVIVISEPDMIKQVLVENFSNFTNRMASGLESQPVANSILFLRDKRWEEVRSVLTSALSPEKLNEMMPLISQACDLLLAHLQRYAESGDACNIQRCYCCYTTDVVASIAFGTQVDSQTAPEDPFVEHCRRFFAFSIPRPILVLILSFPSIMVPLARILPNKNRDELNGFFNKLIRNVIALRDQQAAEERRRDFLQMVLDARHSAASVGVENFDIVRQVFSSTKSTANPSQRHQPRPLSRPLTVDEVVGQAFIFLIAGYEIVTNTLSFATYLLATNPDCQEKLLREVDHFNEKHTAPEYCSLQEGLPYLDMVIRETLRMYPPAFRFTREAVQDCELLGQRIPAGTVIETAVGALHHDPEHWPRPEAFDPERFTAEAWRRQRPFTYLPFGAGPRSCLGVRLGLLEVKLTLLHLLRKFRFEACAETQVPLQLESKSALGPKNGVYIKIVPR
Protocol: Inhibition of Thromboxane A2 (TXA2) synthetase
(§1) As a preparation of TXA2 synthetase, horse platelet microsome treated with indomethacin (indomethacin-treated horse platelet microsome: IPM) according to the method of Needleman et al. (Science 193 163, 1979) was used. To 60 μl of the solution of IPM in 50 mM Tris buffer(pH 7.5) (containing 140 μg on the protein basis), 60μof a solution containing a drug at a variable concentration was added and kept still at room temperature for 5 minutes. One hundred μl of this mixture was taken, to which 20 μl of a buffer containing 30 ng cf prostaglandin H2 (PGH2) with ice-cooling and kept still at 0° C. for 5 minutes to produce thromboxane A2 (TXA2). The reaction was stopped by addition of 500 μl of Tris buffer, and 50 μl of the resultant solution was subjected to radioimmunoassay of thromboxane B2 (TXB2), a stable metabolite of TXA2 [Shibouta et al. Biochem. Pharmacol. 28 3601, 1979]. The rate of inhibition (%) of TXA2 synthetase was determined from the difference in TXB2 productivity between the untreated group and the treated group.
as §1, with “60 μl of” for “60μof”, “of” for “cf”

SMILES | inhibition at 1 µM (5-lipoxygenase) [%] | inhibition at 0.1 µM (5-lipoxygenase) [%] | Inhibition of production of lipid peroxide in rat brain homogenate ([1]; 5 × 10^-7 M) [%] | Inhibition of production of lipid peroxide in rat brain homogenate ([1]; 10^-6 M) [%] | inhibition at 1 µM ([2]; 10^-6 M) [%] | inhibition at 0.1 µM ([2]; 10^-7 M) [%] | inhibition at 0.1 µM [2] [%] | inhibition at 1 µM [2] [%]
CC1=C(C)C(=O)C(C(CCCCO)c2cccnc2)=C(C)C1=O (centres unmarked) [compound 8] | 88 | 63 | 20 | 100 | 37 | 6 | – | –
CCCCCCC(C1=C(C)C(=O)C(C)=C(C)C1=O)c1cccnc1 (centres unmarked) [Compound No. 16, 1-(3,5,6-trimethyl-1,4-benzoquinon-2-yl)-1-(3-pyridyl)heptane] | 96 | 77 | 44 | 100 | 49 | 6 | – | –
CCC(C1=C(C)C(=O)C(C)=C(C)C1=O)c1cccnc1 (centres unmarked) [compound 15] | 91 | 57 | 52 | 100 | 76 | 15 | – | –
CC1=C(C)C(=O)C(Cc2cccnc2)=C(C)C1=O [Compound No. 14] | 92 | 80 | 46 | 100 | 61 | 35 | – | –
CC1=C(C)C(=O)C(C(CCCCC(=O)O)c2cccnc2)=C(C)C1=O (centres unmarked) [compound 10] | 90 | 52 | 13 | 100 | 67 | 24 | – | –
CC(=Cc1ccc(C(C2=C(C)C(=O)C(C)=C(C)C2=O)c2cccnc2)cc1)C(=O)O (stereo not drawn) [Compound No. 5, 4-[3,5,6-trimethyl-1,4-benzoquinon-2-yl(3-pyridyl)methyl]-α-methylcinnamic acid] | 73 | 28 | 29 | 100 | 65 | 7 | – | –
CC1=C(C)C(=O)C(C(c2ccccc2)c2cccnc2)=C(C)C1=O (centres unmarked) [Compound No. 2, 3,5,6-trimethyl-2-[phenyl-(3-pyridyl)methyl]-1,4-benzoquinone] | 85 | 60 | 32 | 100 | – | – | 45 | 89
CC(=O)OCCCCC(C1=C(C)C(=O)C(C)=C(C)C1=O)c1cccnc1 (centres unmarked) [compound 9] | 90 | 62 | 17 | 100 | 54 | 18 | – | –
CC(=O)OCCCCCC(C1=C(C)C(=O)C(C)=C(C)C1=O)c1cccnc1 (centres unmarked) [compound 12] | 91 | 67 | 15 | 100 | 56 | 22 | – | –
CCCCC(C1=C(C)C(=O)C(C)=C(C)C1=O)c1cccnc1 (centres unmarked) [Compound No. 7, 2-[1-(3-pyridyl)pentyl]-3,5,6-trimethyl-1,4-benzoquinone] | 86 | 35 | 26 | 100 | 32 | – | – | –
CC1=C(C)C(=O)C(C(CCCCCO)c2cccnc2)=C(C)C1=O (centres unmarked) [compound 11] | 88 | 61 | 15 | 100 | 67 | 13 | – | –
